In patent publication US20250092017A1, “2-PIPERIDYL OR 2-PYRAZOLYL SUBSTITUTED PYRIMIDINE COMPOUND SERVING AS EGFR INHIBITOR” (SUZHOU PUHE BIOPHARMA CO., LTD., priority 2022, published 2025):
Read-outs that look alike come from different tables or passages of the source.

Columns and labels:
[1] = system: Ba/F3-FL-EGFR-del19-C797S; test: CellTiter-Glo proliferation, Ba/F3-FL-EGFR-del19-C797S; format: cell-based; conditions: read-out: Ba/F3-FL-EGFR-del19-C797S IC50/nM
Summary of the method: (§1)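 Ba/F3 lines dependent on the indicated EGFR variants were treated with compounds at a final DMSO concentration of 0.1% at 37 °C, 5% CO2. Viability was read by CellTiter-Glo luminescence, and inhibition rate was normalised to DMSO-treated cells (max) and medium-only wells (min). IC50 came from inhibition curves.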

[2] = biological target: T1, Ba/F3-FL-EGFR (Homo sapiens, UniProt P00533); test: CellTiter-Glo proliferation, Ba/F3-FL-EGFR; format: cell-based; conditions: 72 hours, read-out: Ba/F3-FL-EGFR IC50/nM
T1 construct: FL read as full length
Summary of the method: as §1

[3] = biological target: EGFR (L858R/C797S) (Homo sapiens, UniProt P00533, C797S/L858R); test: MSA (Mobility Shift Assay) kinase activity, EGFR-L858R-C797S; format: biochemical
Description: (§2) The MSA (Mobility Shift Assay) method was used to detect the effects of small molecule inhibitors on the kinase activity of EGFR wild type and its mutants (EGFR^wt, EGFR-L858R, EGFR-L858R-T790M-C797S, EGFR-L858R-C797S).
(§3) 10 μL of kinase solution at 2.5 times the final concentration was added to the compound wells and positive control Max wells; 10 μL of 1x kinase buffer was added to the negative control Min wells. The mixture was centrifuged at 1000 rpm for 30 seconds, and the reaction plate was shaken to mix the solution well and then incubated at room temperature for 10 minutes. A mixed solution of ATP and kinase substrate at 5/3 times the final concentration was prepared in 1x kinase buffer. 15 μL of a mixed solution of ATP and substrate at 5/3 times the final concentration was added to initiate the reaction. The 384-well plate was centrifuged at 1000 rpm for 30 seconds, and shaken to mix the solution well and then incubated at room temperature for the corresponding time. 30 μL of stop detection solution was added to stop the kinase reaction, and the mixture was centrifuged at 1000 rpm for 30 seconds, and then to mixed well by shaking. The conversion rate was read using Caliper EZ Reader.
(§4) wherein: Conversion %_sample is the conversion rate reading of the sample; Conversion %_min is the mean of the negative control wells, representing the conversion rate reading of the wells without enzyme activity; Conversion %_max is the mean of the positive control wells, representing the conversion rate reading of the wells without compound inhibition.
(§5) The log (inhibitor) vs. response —Variable slope of the analysis software GraphPad Prism 5 was used to fit the dose-effect curve, where the log value of the concentration was used as the X-axis and the percentage inhibition rate was used as the Y-axis, to obtain the IC50 value of each compound on the enzyme activity.
(§6) The calculation formula is Y=Bottom+(Top-Bottom)/(1+10^((Log IC50−X)*Hill Slope))

[4] = biological target: Ba/F3-FL-EGFR-L858R-T790M-C797S (Homo sapiens, UniProt P00533, T790M/C797S/L858R, cells depend on it); test: CellTiter-Glo proliferation, Ba/F3-FL-EGFR-L858R-T790M-C797S; format: cell-based; conditions: 72 hours, read-out: Ba/F3-FL-EGFR-L858R-T790M-C797S IC50/nM
Summary of the method: as §1

[5] = biological target: Ba/F3-FL-EGFR-L858R (Homo sapiens, UniProt P00533, L858R, cells depend on it); test: CellTiter-Glo proliferation, Ba/F3-FL-EGFR-L858R; format: cell-based; conditions: 72 hours, read-out: Ba/F3-FL-EGFR-L858R IC50/nM
Summary of the method: as §1

[6] = biological target: EGFR (L858R/T790M/C797S) (Homo sapiens, UniProt P00533, C797S/L858R/T790M); test: MSA (Mobility Shift Assay) kinase activity, EGFR-L858R-T790M-C797S; format: biochemical
Description: as §2, §3, §4, §5, §6

[7] = biological target: T2, Ba/F3-TEL-EGFR-L858R-C797S (Homo sapiens, UniProt P00533, C797S/L858R, cells depend on it); test: CellTiter-Glo proliferation, Ba/F3-TEL-EGFR-L858R-C797S; format: cell-based; conditions: 72 hours, read-out: Ba/F3-TEL-EGFR-L858R-C797S IC50/nM
T2 construct: fused on or other part: N-terminal TEL (ETV6) oligomerising part fused to the EGFR intracellular/kinase part; P41212 (Transcription factor ETV6)
Summary of the method: as §1

[8] = Liver microsome stability test, human; format: in vitro ADME; conditions: human liver microsomes 0.5 mg/ml, compound 1 μM, NADPH 1 mM, within 60 minutes
Description: (§7) The compounds of the present disclosure were subjected to a liver microsome stability test. The compounds to be tested were co-incubated with liver microsomes of different species with or without the addition of NADPH. The final concentration of the compounds to be tested in the test system was 1 μM. The final concentration of NADPH was 1 mM, and the final concentration of liver microsomes was 0.5 mg/ml.

[9] = Liver microsome stability test, mouse; format: in vitro ADME; conditions: mouse liver microsomes 0.5 mg/ml, compound 1 μM, NADPH 1 mM, within 60 minutes
Description: as §7

[10] = biological target: EGFR (wild-type) (Homo sapiens, UniProt P00533); test: MSA (Mobility Shift Assay) kinase activity, EGFR wild type; format: biochemical; conditions: read-out: EGFR wt/ IC50/nM
Description: as §2, §3, §4, §5, §6

[11] = biological target: EGFR (L858R) (Homo sapiens, UniProt P00533, L858R); test: MSA (Mobility Shift Assay) kinase activity, EGFR-L858R; format: biochemical
Description: as §2, §3, §4, §5, §6

[12] = system: BaF3 (del19/T790M1C797S) tumor cells; test: In vivo efficacy assay in BALB/c nude mice, subcutaneous BaF3 tumor; conditions: 25 mg/kg, QD, oral
Description: In vivo efficacy assay in BALB/c nude mice. Details were as follows:
BaF3 (del19/T790M1C797S) tumor cells were cultured and inoculated into 6-8 weeks old female BALB/c nude mice (weighing about 20 g), with all mice being subcutaneously inoculated. The mice were cultured in an SPF-grade experimental environment, and all mice had free access to commercially certified standard diets. When the average tumor volume of the mice grew to about 150 mm^3, the test compound was orally administered daily. The dosage was as follows: blank group vehicle (DMSO/Solutol/H2O, 5/10/85). […] The tumor volume was measured three times a week with a two-dimensional caliper, and the animals were weighed every day. […] The volume calculation formula is: V=1/2a*b^2, where a represents the long diameter of the tumor, and b represents the short diameter of the tumor.

[13] = 72 h, proliferation, 72 hours, CellTiter-Glo
[14] = proliferation, 72 hours, CellTiter-Glo

Chain of Ba/F3-FL-EGFR-L858R (P00533 whole entry L858R): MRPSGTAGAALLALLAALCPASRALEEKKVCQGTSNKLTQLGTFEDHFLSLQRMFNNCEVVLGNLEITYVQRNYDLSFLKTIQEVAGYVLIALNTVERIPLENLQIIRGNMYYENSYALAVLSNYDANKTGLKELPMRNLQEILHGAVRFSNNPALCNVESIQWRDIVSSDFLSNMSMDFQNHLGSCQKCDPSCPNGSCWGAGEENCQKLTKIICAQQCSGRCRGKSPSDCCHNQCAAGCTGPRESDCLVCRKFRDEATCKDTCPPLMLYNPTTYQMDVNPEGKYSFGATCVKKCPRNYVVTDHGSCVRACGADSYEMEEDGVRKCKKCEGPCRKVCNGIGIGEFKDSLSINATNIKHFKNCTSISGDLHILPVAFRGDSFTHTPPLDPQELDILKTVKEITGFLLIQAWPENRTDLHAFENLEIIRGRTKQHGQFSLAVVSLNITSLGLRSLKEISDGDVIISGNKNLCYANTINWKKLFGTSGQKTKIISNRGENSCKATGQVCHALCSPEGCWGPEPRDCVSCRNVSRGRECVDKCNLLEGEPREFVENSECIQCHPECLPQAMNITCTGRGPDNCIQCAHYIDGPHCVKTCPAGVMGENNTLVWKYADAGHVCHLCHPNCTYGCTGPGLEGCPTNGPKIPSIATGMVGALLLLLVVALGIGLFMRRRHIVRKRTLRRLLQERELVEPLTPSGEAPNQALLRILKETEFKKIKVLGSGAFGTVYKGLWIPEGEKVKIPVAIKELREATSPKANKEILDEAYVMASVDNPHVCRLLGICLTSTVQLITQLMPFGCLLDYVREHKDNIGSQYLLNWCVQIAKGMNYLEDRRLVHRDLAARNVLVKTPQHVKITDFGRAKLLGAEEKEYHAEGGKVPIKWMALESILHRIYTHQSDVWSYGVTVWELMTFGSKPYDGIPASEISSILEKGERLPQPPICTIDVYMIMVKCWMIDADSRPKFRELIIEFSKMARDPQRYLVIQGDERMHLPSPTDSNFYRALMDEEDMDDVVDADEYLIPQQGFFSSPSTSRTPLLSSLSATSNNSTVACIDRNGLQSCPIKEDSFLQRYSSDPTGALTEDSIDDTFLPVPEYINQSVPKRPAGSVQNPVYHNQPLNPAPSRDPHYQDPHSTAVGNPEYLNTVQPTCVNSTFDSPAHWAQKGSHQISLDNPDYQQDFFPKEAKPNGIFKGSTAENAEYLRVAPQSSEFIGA
Chain of EGFR (L858R/C797S) (P00533 25-1210 C797S/L858R): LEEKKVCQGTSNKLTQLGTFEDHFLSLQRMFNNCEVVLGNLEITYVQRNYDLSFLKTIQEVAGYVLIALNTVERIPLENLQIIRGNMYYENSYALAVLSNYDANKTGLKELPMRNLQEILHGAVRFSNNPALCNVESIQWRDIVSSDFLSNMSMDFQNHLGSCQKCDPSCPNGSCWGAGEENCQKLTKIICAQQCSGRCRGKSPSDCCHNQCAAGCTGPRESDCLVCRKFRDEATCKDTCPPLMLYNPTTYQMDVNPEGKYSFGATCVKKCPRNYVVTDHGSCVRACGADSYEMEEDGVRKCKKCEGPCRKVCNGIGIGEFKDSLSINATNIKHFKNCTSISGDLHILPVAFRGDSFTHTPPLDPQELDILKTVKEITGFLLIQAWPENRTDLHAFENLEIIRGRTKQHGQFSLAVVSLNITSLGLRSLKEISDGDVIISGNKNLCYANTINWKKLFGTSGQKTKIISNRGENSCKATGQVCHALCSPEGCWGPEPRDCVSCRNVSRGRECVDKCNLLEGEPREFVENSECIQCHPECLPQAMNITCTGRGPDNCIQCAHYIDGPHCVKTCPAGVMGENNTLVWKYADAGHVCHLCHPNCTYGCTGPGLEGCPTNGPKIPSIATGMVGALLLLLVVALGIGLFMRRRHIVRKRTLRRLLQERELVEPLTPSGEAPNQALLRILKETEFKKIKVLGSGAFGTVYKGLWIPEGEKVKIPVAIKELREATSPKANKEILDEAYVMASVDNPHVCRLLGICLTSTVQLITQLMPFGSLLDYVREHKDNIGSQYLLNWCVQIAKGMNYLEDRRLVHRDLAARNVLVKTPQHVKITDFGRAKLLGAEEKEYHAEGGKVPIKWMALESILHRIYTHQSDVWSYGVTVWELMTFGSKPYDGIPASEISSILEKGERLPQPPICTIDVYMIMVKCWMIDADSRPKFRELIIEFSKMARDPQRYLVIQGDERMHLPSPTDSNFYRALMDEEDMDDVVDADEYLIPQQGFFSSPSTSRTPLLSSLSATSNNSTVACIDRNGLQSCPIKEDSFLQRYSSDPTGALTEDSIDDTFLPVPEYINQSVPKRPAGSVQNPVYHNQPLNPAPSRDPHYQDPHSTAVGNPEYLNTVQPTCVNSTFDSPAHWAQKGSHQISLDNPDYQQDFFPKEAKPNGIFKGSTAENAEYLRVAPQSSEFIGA
Chain of Ba/F3-FL-EGFR-L858R-T790M-C797S (P00533 whole entry T790M/C797S/L858R): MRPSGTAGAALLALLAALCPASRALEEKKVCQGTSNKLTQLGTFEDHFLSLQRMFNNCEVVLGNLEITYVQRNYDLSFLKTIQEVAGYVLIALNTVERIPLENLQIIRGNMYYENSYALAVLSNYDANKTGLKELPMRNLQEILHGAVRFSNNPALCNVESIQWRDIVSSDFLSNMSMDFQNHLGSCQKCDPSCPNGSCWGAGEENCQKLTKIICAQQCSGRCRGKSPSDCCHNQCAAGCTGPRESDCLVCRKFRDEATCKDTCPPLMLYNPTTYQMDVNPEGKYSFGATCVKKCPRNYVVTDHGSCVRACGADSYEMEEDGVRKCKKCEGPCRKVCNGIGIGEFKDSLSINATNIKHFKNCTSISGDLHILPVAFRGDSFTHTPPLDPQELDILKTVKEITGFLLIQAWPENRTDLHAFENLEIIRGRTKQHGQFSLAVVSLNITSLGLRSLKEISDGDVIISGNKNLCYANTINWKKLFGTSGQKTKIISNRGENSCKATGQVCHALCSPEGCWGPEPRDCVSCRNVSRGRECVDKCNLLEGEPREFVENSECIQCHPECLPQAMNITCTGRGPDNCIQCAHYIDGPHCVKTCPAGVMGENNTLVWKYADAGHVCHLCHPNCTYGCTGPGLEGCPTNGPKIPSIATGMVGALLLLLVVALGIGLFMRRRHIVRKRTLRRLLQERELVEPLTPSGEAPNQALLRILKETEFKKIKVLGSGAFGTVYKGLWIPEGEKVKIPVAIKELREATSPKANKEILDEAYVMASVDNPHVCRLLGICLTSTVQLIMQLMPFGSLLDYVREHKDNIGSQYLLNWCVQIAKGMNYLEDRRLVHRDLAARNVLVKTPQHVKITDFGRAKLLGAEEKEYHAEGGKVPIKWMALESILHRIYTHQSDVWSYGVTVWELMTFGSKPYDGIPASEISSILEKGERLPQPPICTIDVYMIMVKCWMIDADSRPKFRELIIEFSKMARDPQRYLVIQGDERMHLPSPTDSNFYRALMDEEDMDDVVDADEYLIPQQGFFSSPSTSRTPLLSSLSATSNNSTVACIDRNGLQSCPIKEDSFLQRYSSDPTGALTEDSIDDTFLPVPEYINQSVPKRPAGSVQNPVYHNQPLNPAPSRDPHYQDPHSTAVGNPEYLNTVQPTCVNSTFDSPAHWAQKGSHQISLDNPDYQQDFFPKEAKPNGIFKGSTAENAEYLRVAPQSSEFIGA
T1 sequence (P00533 whole entry, change not shown): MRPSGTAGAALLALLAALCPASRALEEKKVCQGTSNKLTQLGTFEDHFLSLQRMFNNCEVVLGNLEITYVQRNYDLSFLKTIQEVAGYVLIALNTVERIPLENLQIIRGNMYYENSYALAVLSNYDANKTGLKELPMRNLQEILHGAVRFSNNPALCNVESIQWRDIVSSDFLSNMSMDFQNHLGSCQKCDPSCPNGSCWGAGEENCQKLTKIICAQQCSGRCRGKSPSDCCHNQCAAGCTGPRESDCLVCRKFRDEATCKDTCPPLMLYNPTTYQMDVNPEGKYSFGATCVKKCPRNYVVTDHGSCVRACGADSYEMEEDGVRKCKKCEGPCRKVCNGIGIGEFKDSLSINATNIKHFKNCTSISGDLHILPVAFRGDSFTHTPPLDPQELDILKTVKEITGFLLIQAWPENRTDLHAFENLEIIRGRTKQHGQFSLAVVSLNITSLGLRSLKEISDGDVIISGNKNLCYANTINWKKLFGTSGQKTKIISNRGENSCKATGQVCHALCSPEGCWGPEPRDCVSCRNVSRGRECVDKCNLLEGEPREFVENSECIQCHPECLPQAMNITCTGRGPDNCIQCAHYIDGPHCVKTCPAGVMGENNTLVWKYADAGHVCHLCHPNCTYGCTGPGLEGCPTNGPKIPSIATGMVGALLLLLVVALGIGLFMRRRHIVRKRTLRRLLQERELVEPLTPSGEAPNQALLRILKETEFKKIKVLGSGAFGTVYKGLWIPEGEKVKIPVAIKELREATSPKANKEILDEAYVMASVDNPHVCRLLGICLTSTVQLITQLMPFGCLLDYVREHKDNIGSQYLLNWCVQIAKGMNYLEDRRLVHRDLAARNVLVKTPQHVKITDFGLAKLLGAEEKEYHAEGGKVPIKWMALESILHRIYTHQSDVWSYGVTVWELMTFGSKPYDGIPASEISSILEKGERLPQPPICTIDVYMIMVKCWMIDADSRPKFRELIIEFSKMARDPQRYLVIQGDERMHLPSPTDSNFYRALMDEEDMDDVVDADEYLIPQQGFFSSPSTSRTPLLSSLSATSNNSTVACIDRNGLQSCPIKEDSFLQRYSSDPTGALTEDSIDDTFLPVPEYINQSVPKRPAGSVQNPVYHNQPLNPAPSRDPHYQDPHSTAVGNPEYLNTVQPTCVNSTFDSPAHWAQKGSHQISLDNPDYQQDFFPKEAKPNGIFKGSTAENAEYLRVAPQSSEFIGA

Compound: CC(C)c1ccc(N2CC(CS(C)(=O)=O)C2)c2cnc(Nc3ccnc(-c4cnn(S(C)(=O)=O)c4)n3)cc12 [Compound H7]
- IC50 [1, 13]: 12 nM
- GI50 [2]: 365 nM
- IC50 [3]: 0.77 nM
- GI50 [4]: 25 nM
- GI50 [5]: 13 nM
- IC50 [6]: 0.14 nM
- GI50 [7]: 11 nM
- CLint scaled at 1 μM [8]: 21.3 mL/min/kg
- CLint scaled at 1 μM [9]: 151 mL/min/kg
- IC50 [10]: 2.4 nM

Compound: CC(C)c1ccc(N2CC(NS(C)(=O)=O)C2)c2cnc(Nc3ccnc(N4CCC(O)C(F)(F)C4)n3)cc12 (centres unmarked) [Compound P30]
- IC50 [1, 13]: 200 nM
- GI50 [2]: 2340 nM
- IC50 [3]: 4.8 nM
- GI50 [4]: 47 nM
- GI50 [5]: 111 nM
- IC50 [11]: 3.5 nM
- IC50 [6]: 0.1 nM
- GI50 [7]: 48 nM
- CLint scaled at 1 μM [8]: < 8.6 mL/min/kg
- CLint scaled at 1 μM [9]: 230 mL/min/kg
- IC50 [10]: 18.1 nM

Compound: CC(C)c1ccc(N2C[C@H](NS(C)(=O)=O)[C@H]2C)c2cnc(Nc3ccnc(N4CCC(O)C(F)C4)n3)cc12 (some centres unmarked) [Compound P25]
- IC50 [1, 13]: 71 nM
- GI50 [2]: 618 nM
- IC50 [3]: 1.22 nM
- GI50 [4]: 11 nM
- GI50 [5]: 42 nM
- IC50 [11]: 0.77 nM
- IC50 [6]: 0.08 nM
- GI50 [7]: 15 nM
- IC50 [10]: 5.1 nM

Compound: CC(C)c1ccc(N2CC(CS(C)(=O)=O)C2)c2cnc(Nc3ccnc(-c4cnn(CC(F)(F)F)c4)n3)cc12 [Compound H11]
- IC50 [1, 13]: 97 nM
- GI50 [2]: > 10000 nM
- IC50 [3]: 5.1 nM
- GI50 [4]: 123 nM
- GI50 [5]: 40 nM
- IC50 [11]: 5.8 nM
- IC50 [6]: 0.44 nM
- GI50 [7]: 37 nM
- IC50 [10]: 24.3 nM

Compound: CC(C)c1ccc(N2CC(CS(C)(=O)=O)C2)c2cnc(Nc3ccnc(-c4cnn(S(=O)(=O)C5(C)CC5)c4)n3)cc12 [Compound H18]
- IC50 [1, 13]: 69 nM
- GI50 [2]: 658 nM
- IC50 [3]: 5 nM
- GI50 [4]: 150 nM
- GI50 [5]: 73 nM
- IC50 [11]: 2.6 nM
- IC50 [6]: 0.6 nM
- GI50 [7]: 46 nM
- IC50 [10]: 7.3 nM

Compound: C=CC(=O)Nc1cc(Nc2nccc(-c3cn(C)c4ccccc34)n2)c(OC)cc1N(C)CCN(C)C [Osimertinib, osimertinib, reference compound]
- IC50 ([1]; 72 h): 906 nM
- Tumor volume (mm^3) ([12]; after 13 consecutive days of administration): 3110 mm^3
- TGI ([12]; after 13 consecutive days, based on final tumor volume): 20%

Compound: CC(C)c1ccc(N2CC(CS(C)(=O)=O)C2)c2cnc(Nc3ccnc(-c4cnn(S(=O)(=O)C5CC5)c4)n3)cc12 [Compound H1]
- IC50 [1, 14]: 10 nM
- GI50 [2]: 101 nM
- IC50 [3]: 1.5 nM
- GI50 [4]: 16 nM
- GI50 [5]: 5.9 nM
- IC50 [11]: 1.6 nM
- IC50 [6]: 0.4 nM
- GI50 [7]: 3.1 nM
- Human Clint/(mL/min/kg) [8]: <8.6 mL/min/kg
- Mouse Clint/(mL/min/kg) [9]: 174 mL/min/kg
- IC50 [10]: 3.9 nM

Compound: CC(C)c1ccc(N2CC(CS(C)(=O)=O)C2)c2cnc(Nc3ccnc(-c4cnn(S(=O)(=O)C5CCOCC5)c4)n3)cc12 [Compound H10]
- IC50 [1, 13]: 101 nM
- GI50 [2]: 1080 nM
- IC50 [3]: 7.2 nM
- GI50 [4]: 219 nM
- GI50 [5]: 94 nM
- IC50 [11]: 8.1 nM
- IC50 [6]: 0.34 nM
- GI50 [7]: 54 nM
- IC50 [10]: 30.3 nM

Compound: CC(C)c1ccc(N2CC(NS(C)(=O)=O)C2)c2cnc(Nc3ccnc(N4CCC(C)(O)C(F)C4)n3)cc12 (centres unmarked) [Compound P51]
- IC50 [1, 13]: 181 nM
- GI50 [2]: 1750 nM
- IC50 [3]: 4.2 nM
- GI50 [4]: 63 nM
- GI50 [5]: 86 nM
- IC50 [11]: 2.5 nM
- IC50 [6]: 0.12 nM
- GI50 [7]: 28 nM
- IC50 [10]: 13.4 nM

Compound: CC(C)c1ccc(N2CC(NS(C)(=O)=O)C2)c2cnc(Nc3ccnc(N4CCC(O)C(F)C4)n3)cc12 (centres unmarked) [Compound P21]
- IC50 [1, 13]: 205 nM
- GI50 [2]: 1510 nM
- IC50 [3]: 2.3 nM
- GI50 [4]: 36 nM
- GI50 [5]: 76 nM
- IC50 [11]: 1.9 nM
- IC50 [6]: 0.06 nM
- GI50 [7]: 38.6 nM
- CLint scaled at 1 μM [8]: 13.6 mL/min/kg
- CLint scaled at 1 μM [9]: 396 mL/min/kg
- IC50 [10]: 8.4 nM

Compound: CC(C)c1ccc(N2CC(NS(C)(=O)=O)C2)c2cnc(Nc3ccnc(N4CCC(O)C(C)(F)C4)n3)cc12 (centres unmarked) [Compound P46]
- IC50 [1, 14]: 308 nM
- GI50 [2]: 3110 nM
- IC50 [3]: 9.3 nM
- GI50 [4]: 271 nM
- GI50 [5]: 208 nM
- IC50 [11]: 6.2 nM
- IC50 [6]: 0.61 nM
- GI50 [7]: 88 nM
- IC50 [10]: 41.8 nM

Compound: CC(C)c1ccc(N2CC(CS(C)(=O)=O)C2)c2cnc(Nc3ccnc(-c4cnn(S(=O)(=O)N(C)C)c4)n3)cc12 [Compound H19]
- IC50 [1, 13]: 57 nM
- GI50 [2]: 559 nM
- IC50 [3]: 4.6 nM
- GI50 [4]: 123 nM
- GI50 [5]: 64 nM
- IC50 [11]: 2.9 nM
- IC50 [6]: 0.4 nM
- GI50 [7]: 36 nM
- CLint scaled at 1 μM [8]: 17.2 mL/min/kg
- CLint scaled at 1 μM [9]: 61.8 mL/min/kg
- IC50 [10]: 7.4 nM

Compound: COC1CCN(c2nccc(Nc3cc4c(C(C)C)ccc(N5CC(NS(C)(=O)=O)C5)c4cn3)n2)CC1F (centres unmarked) [Compound P29]
- IC50 [1, 13]: 202 nM
- GI50 [2]: 1090 nM
- IC50 [3]: 2.5 nM
- GI50 [4]: 13 nM
- GI50 [5]: 41 nM
- IC50 [11]: 1.3 nM
- IC50 [6]: 0.07 nM
- GI50 [7]: 13 nM
- CLint scaled at 1 μM [8]: 23.4 mL/min/kg
- CLint scaled at 1 μM [9]: 440 mL/min/kg
- IC50 [10]: 8.4 nM
